Changes are numbered by the printed parent chain.
Assays:
[1] = target: T1, H875Y-AR (Homo sapiens, UniProt P10275, H875Y); format: cell-based; conditions: AR mutant H875Y; transfected PC3 cells; 0.1 nM R1881; drug 0 to 50 μM
T1 sequence (P10275 1-920 H875Y): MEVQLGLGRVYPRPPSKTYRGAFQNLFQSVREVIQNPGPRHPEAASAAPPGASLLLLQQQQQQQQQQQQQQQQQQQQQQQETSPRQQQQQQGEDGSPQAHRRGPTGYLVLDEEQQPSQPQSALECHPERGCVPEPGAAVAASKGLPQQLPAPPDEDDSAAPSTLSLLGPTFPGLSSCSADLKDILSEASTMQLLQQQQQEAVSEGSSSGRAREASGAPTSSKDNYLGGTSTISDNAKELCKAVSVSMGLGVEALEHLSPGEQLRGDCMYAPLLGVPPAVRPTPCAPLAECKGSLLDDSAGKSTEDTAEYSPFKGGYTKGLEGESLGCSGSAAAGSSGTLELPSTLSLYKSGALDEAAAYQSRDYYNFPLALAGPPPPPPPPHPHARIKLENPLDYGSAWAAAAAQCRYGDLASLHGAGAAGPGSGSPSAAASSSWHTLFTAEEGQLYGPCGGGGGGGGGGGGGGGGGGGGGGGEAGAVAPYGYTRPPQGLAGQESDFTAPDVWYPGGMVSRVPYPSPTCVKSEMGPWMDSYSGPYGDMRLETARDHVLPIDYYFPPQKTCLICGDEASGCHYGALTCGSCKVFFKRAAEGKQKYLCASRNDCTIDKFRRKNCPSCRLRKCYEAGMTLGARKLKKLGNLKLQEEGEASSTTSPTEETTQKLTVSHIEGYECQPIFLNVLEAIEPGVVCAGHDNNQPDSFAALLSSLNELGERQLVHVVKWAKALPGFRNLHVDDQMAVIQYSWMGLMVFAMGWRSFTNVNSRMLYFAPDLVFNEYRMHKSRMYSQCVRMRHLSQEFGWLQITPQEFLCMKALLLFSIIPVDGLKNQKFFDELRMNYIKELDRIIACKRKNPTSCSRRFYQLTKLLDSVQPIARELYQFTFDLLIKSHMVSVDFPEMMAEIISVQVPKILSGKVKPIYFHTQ
From the text: (§1) Full-length human AR (WT-AR) was encoded on a pcDNA3.1 expression plasmid (Life technologies). The LBD point mutations (single and multiple) were generated using the QuikChange II Site-Directed Mutagenesis Kit (Agilent Technologies) as per manufacturer’s instructions using WT-AR as the template. The mutagenic oligonucleotide primers were designed individually with the desired mutation in the middle of the primer with approximately 10 to 15 bases of correct sequence on both sides.
(§2) PC3 cells were seeded and transfected as described above. […] A non-stimulated/no R1881 control was used. After 24 h, cells were lysed and AR-dependent luciferase activity was quantified. Each concentration was assayed in quadruplicate n = 4, with a biological replicate of n = 3. Results were averaged and normalized by expressing them as a percentage of WT AR activity.

[2] = target: T2, H875Y/T878A-AR (Homo sapiens, UniProt P10275, H875Y/T878A); format: cell-based; conditions: AR mutant H875Y/T878A; transfected PC3 cells; 0.1 nM R1881; drug 0 to 50 μM
T2 sequence (P10275 1-920 H875Y/T878A): T1 sequence (P10275 1-920 H875Y) with T878A
From the text: as §1, §2

CC(C)(O)C(=O)Nc1ccc([N+](=O)[O-])c(C(F)(F)F)c1 [Hydroxyflutamide, hydroxyflutamide]
Agonist response to treatment [1]: Yes | Agonist response to treatment [2]: Yes

From publication PMC4729137, “Functional analysis of androgen receptor mutations that confer anti-androgen resistance identified in circulating cell-free DNA from prostate cancer patients” (Genome Biology, 2016)
